Read-outs that look alike come from different tables or passages of the source.
Columns and labels:
human Schwann cells = experiment: Apoptosis markers (TUNNEL assays, immunoblot of Caspase-3, Caspase-9, PARP); format: cell-based; conditions: Camptothecin (1.5 μM)-treated Schwann cells, within 48 hours, positive control
Method: Total protein extracts were prepared from M. leprae infected and non-infected human Schwann cells in cell lysis and nuclear extraction buffer containing 62 mM Tris-HCl pH 6.8, 2% SDS, 10% Glycerol, 50 mM DTT and 0.2% protease inhibitors cocktail (Sigma, St. Louis, Mo.). Lysates were cleared by centrifugation and the protein content was determined according to the BCA method per manufacturer's instructions (PIERCE Chemical, Rockford Ill.). 40 μg of total cellular extracts were separated by sodium dodecyl sulfate-polyacrylamide gel electrophoresis (SDS-PAGE) and transferred to nitrocellulose membranes (Schleicher & Schuell, Keene, N.H.). Bound antibodies were detected using species-specific secondary antibodies coupled to HRP (Cell Signaling Technology, Beverly, Mass.) followed by enhanced chemiluminescence development (PIERCE Chemical, Rockford Ill.).
Total protein extracts were prepared by harvesting M. leprae infected human Schwann cells in cell lysis buffer and non-infected human Schwann cells in nuclear extracting buffer. Lysates were cleared by centrifugation and the protein content was determined according to the BCA method (PIERCE Chemical, Rockford Ill.). […] Protein expression intensity was normalized to β-actin expression and quantified with a densitometer (Alpha Innotech Corporation, San Leandro, Calif.) using the Alpha Imager 2200 v.5.5 software. […]

[1] = test system: Erk1/2 and GSK-3β phosphorylation; format: cell-based, human; conditions: for phosphorylation of Erk1/2 and GSK-3β in infected Schwann cells in presence of inhibitor: synchronized, continuous presence of inhibitor (15 μM); for M. leprae-induced Erk1/2 phosphorylation in presence of PKC inhibitor: 20 nM, serum starved 48 hours
Method: The cDNA produced was subsequently PCR amplified for 30 cycles using the various specific primers and fluorescent probes in a 384-well GeneAmp PCR system 9700 (Applied Biosystems, Foster City, Calif.). The level of each target gene was normalized to GAPDH gene as an endogenous reference. The data obtained were analyzed with the ABI PRISM 7900 HT Sequence detection system (Bulletin No. 2, Applied Biosystems). For control reactions the same master mixes were used but excluding the template RNA. Synchronization of Primary Schwann Cell and Kinase Inhibition Schwann cells that had been cultured for 30 days were synchronized for 48 hours by removing growth factor and serum. Schwann cells were then released to progress through the cell cycle by addition of 10% serum to the culture. Cytoplasmic and nuclear extracts obtained from these synchronized cells were prepared before (time 0) and after addition of serum at various time points (i.e., 9 to 18 hours after release). For Erk1/2 and pI3-k inhibition, pre-evaluated concentrations of specific MEK1/2 inhibitor UO126 (15 μM) and PD098059 (15 μM), pI3-k inhibitor LY294002 (15 μM) (Cell Signaling Technology) and SOS inhibitor (10 μg) (Upstate Biotechnology, Lake Placid, N.Y.) were added to the culture medium during synchronization and serum release, and cytoplasmic and nuclear extracts were prepared as described above and the proteins were immunoblotted using antibodies to phospho-Erk1/2, phospho-Akt, phosphoGSK-3β and cyclin-D1. For SOS inhibition studies, cell permeable SOS inhibitory peptide was added and the cells were treated as described above to analyze the effect of SOS inhibitor on M. leprae-induced activation of the above-referenced signaling molecules. None of the inhibitors examined produced any detectable apoptosis or non-apoptotic Schwann cell death under these conditions.
(§1) Human Schwann cells that had been cultured for 30 days with and without M. leprae were synchronized for 48 hours and then released to re-enter the cell cycle by addition of 10% serum. Cytoplasmic and nuclear extracts of these synchronized cells were prepared before and after addition of serum at different time points (9 to 18 hours after release). For Erk1/2 and PI3-k inhibition, pre-evaluated concentrations of specific MEK1/2 inhibitor UO126 (15 μM) and PD098059 (15 μM), pI3-k inhibitor LY294002 (15 μM) (Cell Signaling Technology), SOS inhibitor (10 μg) (Upstate Biotechnology, Lake Placid N.Y.) were used. For PKC and lck inhibition, pan-PKC inhibitor bisindolylmaleimide-I (20 nM) and Lck inhibitor PP2 (10 μM) (Calbiochem-Novabiochem Corporation, CA), respectively, were added to the culture medium during synchronization, and cytoplasmic and nuclear extracts were prepared as described above and were immunoblotted with antibodies to various phospho-specific signaling antibodies. None of the inhibitors produced any apoptosis or Schwann cell death under these conditions.

cyclin D1 = experiment: Nuclear cyclin D1 immunoblot of synchronized Schwann cells; format: cell-based, human; conditions: added to MEK and Pi3-kinase inhibitors
Method: Protein expression intensity was normalized using β-actin expression as an internal control marker and quantified with a densitometer (Alpha Innotech Corporation, San Leandro, Calif.) using the Alpha Imager 2200 v.5.5 software. For preparation of nuclear and cytoplasmic extracts, cells were incubated in a buffer containing 10 mM HEPES pH 7.5, 60 mM KCl, 1 mM EDTA, 0.1% NP-40, 1 mM DTT, 1 mM PMSF and protease inhibitors cocktail for 10 minutes on ice. Lysates were then centrifuged for 10 minutes and the supernatant, which comprised of cytoplasmic extract, was collected. The pellet was re-suspended in a buffer containing 50 mM Tris-HCl pH 7.5, 150 mM NaCl, 1% sodium lauryl sarcosine, 1% NP-40, 0.1% SDS, 1 mM EDTA and protease inhibitors cocktail. After brief sonication, the lysates were centrifuged for 10 minutes and the supernatant, consisting of nuclear extract, was collected. The protein content in both extracts was determined using the BCA method per manufacturer's instructions (Pierce Chemical, Rockford, Ill.).
The cDNA produced was subsequently PCR amplified for 30 cycles using the various specific primers and fluorescent probes in a 384-well GeneAmp PCR system 9700 (Applied Biosystems, Foster City, Calif.). […] The data obtained were analyzed with the ABI PRISM 7900 HT Sequence detection system (Bulletin No. 2, Applied Biosystems). […]

[2] = test system: human primary Schwann cells; experiment: Cell cycle FACS analysis (propidium iodide); format: cell-based
Method: Human primary Schwann cells, that had been cultured for 15 and 30 days with and without M. leprae were trypsinized and adjusted to equal cell number. For the experiments with kinase inhibitors, synchronized infected and control cells were treated with pre-evaluated concentrations of various inhibitors as described previously elsewhere herein, and with different combinations of inhibitors before being processed for cell cycle FACS (Lemoine and Marriott, 2001, J. Biol. Chem. 276:31851-31857). To assess the effect of Lck inhibitor on heregulin-induced cell cycle progression, synchronized Schwann cells were treated with heregulin for 30 minutes in the presence and absence of Lck inhibitor. Cells were then washed with PBS, fixed with 85% ethanol overnight at […] and suspended in 1 ml PBS containing 1% FBS, RNase A (250 μg/ml; Roche Molecular Biochemicals) and 100 μg/ml Propidium Iodide (Sigma) for 30 minutes at 37° C. Stained cells were washed twice with PBS and subjected to FACS analysis on a Becton Dickinson FACScan cytometer (Ruhl et al., 1999, J. Biol. Chem. 274: 34361-34368). The cell cycle profile was analyzed with CellQuest software (Becton & Dickinson).

PKCα/βII = experiment: Phospho-PKC isoform immunoblot; format: cell-based, human
Method: as §1
Although PKC is known to play a role in oligodendrocyte proliferation and differentiation (Bhat et al., 1992, J. Neurosci. Res. 32:340-349; Stariha and Kim, 2001, Microsc. Res. Tech. 52:680-688), much less is known about its function in Schwann cells. […]

Lck/Ser-158 = experiment: Phospho-Lck/Ser-158 immunoblot; format: cell-based, human; conditions: PKC inhibitor (10 μM)
Method: as §1, with “For PKC and lck inhibition, pan-PKC inhibitor bisindolylmaleimide-I (20 nM) and Lck inhibitor PP2 (10 μM) (Calbiochem-Novabiochem Corporation, CA), respectively, were added to the culture medium during synchronization, and cytoplasmic and nuclear extracts were prepared as described above and were immunoblotted with antibodies to various phospho-specific signaling antibodies.” left out
To examine if the addition of exogenous Heregulin-β1 can induce Lck/Ser-158 phosphorylation, human Schwann cells were serum-starved for 48 hours and then incubated with 10 nM […] for 30 minutes. Subsequently, total protein lysates were prepared and the phosphorylation state of Erk1/2, PKC-alpha-betaII/βII and Lck-Ser158 were examined using phospho-specific antibodies.

Compound: CC[C@@]1(O)C(=O)OCc2c1cc1n(c2=O)Cc2cc3ccccc3nc2-1 [Camptothecin]
- expression of apoptosis markers caspase 3, caspase 9, PARP (human Schwann cells): induced the expression of these apoptotic markers
- expression of apoptosis markers caspase 3, caspase 9, PARP (human Schwann cells; listed as camptothecin): express all three apoptosis markers

Compound: O=c1cc(N2CCOCC2)oc2c(-c3ccccc3)cccc12 [LY294002]
- phosphorylation of Erk1/2 and GSK-3β in infected Schwann cells in presence of inhibitor [1]: not inhibited

Compound: CC(C)(C)n1nc(-c2ccc(Cl)cc2)c2c(N)ncnc21 [PP2]
- nuclear cyclin D1 in presence of Lck inhibitor (cyclin D1; listed as Lck inhibitor): dramatically reduced
- nuclear cyclin D1 in presence of Lck inhibitor (cyclin D1; listed as Lck-inhibitor): significant blockade
- net M. leprae-induced S-phase cell population in presence of Lck inhibitor ([2]; added to MEK and Pi3-kinase inhibitors): dramatically reduced
- net S-phase population induced by exogenous heregulin-β1 in presence of Lck inhibitor ([2]; listed as Lck inhibitor): did not affect
- net S-phase population induced by exogenous heregulin-β1 in presence of Lck inhibitor ([2]; listed as Lck-inhibitor): fails to respond
- M. leprae-induced phosphorylation of Erk1/2 in presence of Lck inhibitor ([1]; 10 μM, with MEK1/2 and Pi3K inhibitors, 48 hours): significant reduction

Compound: N#CC(=C(/N)Sc1ccccc1N)/C(C#N)=C(\N)Sc1ccccc1N [U0126]
- phosphorylation of Erk1/2 and GSK-3β in infected Schwann cells in presence of inhibitor [1]: not inhibited

Compound: CN(C)CCCn1cc(C2=C(c3c[nH]c4ccccc34)C(=O)NC2=O)c2ccccc21 [bisindolylmaleimide-I]
- M. leprae-induced phospho-PKCα/βII in presence of pan-PKC inhibitor (PKCα/βII): markedly blocked
- M. leprae-induced Erk1/2 phosphorylation in presence of PKC inhibitor ([1]; with MEK1/2 and Pi3K inhibitors): significantly blocked
- M. leprae-induced Erk1/2 phosphorylation in presence of PKC inhibitor ([1]; with MEK1/2 and Pi3K inhibitors, listed as PKC inhibitor): dramatically down-regulated
- apoptosis or cell death of treated cells ([1]; bisindolylmaleimide-I 20 nM): no apoptosis or cell death
- phosphorylation at Lck/Ser-158 in presence of PKC inhibitor (Lck/Ser-158; listed as PKC inhibitor): completely abolished
- phosphorylation at Lck/Ser-158 in presence of PKC inhibitor (Lck/Ser-158; listed as PKCI): abrogated

Source: patent US20060222636A1, “Compositions, methods and kits relating to reprogramming adult differentiated cells and production of embryonic stem cell-like cells” (The Rockefeller University, priority 2003, published 2006)
